In patent US20170037425A1, “METHOD FOR IMPROVING PLANT TRAIT” (SHANGHAI INSTITUTES FOR BIOLOGICAL SCIENCES, CHINESE …, priority 2012, published 2017):

Columns and labels:
[1] = system: Brassica; test: Net photosynthetic rate of transgenic Brassica; assay type: in vivo, Brassica napus L.; conditions: for net photosynthetic rate, increase compared with wild type: transgenic Brassica
Procedure: Gas exchange was measured using photosynthetic infrared gas analysis system (LI-6400, Li-Cor Inc, Lincoln, Nebr., USA). The net photosynthetic rate (Pn) and stomatal conductance (Gs) was measured. Sunlight and artificial light were used as artificial light sources for measurement. The ambient CO2 during the measurements was controlled at 400 μmol mol^−1. The ambient temperature was controlled at the temperature for plant growth. Six leaves were measured for each line of plant. In addition, for the CO2 response curve of the plant leaf, the light intensity was set at PPFD of 1500 μmol m^−2s^−1 with artificial light source. The Pn under 50-1200 ppm CO2 was measured.

[2] = system: Brassica; test: Chlorophyll and pigment contents of transgenic Brassica leaves; assay type: in vivo, Brassica napus L.
Procedure: Chlorophylls and pigments were extracted from Brassica leaves with 80% acetone. Chlorophyll contents were measured as described by Arnon D J 1949, Plant Physiol 24:1-15. Carotenoid contents were measured as described by Niyogi et al., (1997), Proc. Natl. Acad. Sci. U.S.A. 94, 14162-14167.

[3] = system: Brassica; test: Leaf absorption spectrum of transgenic Brassica; assay type: in vivo, Brassica napus L.; conditions: different light intensities
Procedure: Reflectance and transmittance of Brassica leaves under different light intensities were measured using fiber optic spectrometer with an integrating sphere (Ocean Optics, Britain). The absorbance of the leaves under different light intensities was calculated with the equation: absorbance=100%) (without leaf)−transmittance−reflectance.

[4] = system: Brassica; test: Chlorophyll fluorescence and P700 oxidation-reduction in transgenic Brassica; assay type: in vivo, Brassica napus L.
Procedure: Electron transfer efficiency of leaves was measured by chlorophyll fluorescence. The change of chlorophyll fluorescence parameter was monitored with PAM-2000 fluorometer (Walz, Effeltrich, Germany). Electron transfer efficiency of leaves in response to light was measured after 30-min-dark adaption, Fo represents minimum PSII fluorescence after measuring light is turned on. Fm represents maximum PSII fluorescence after a saturating pulse of white light is turned on. The photochemical efficiency of PSII was calculated with the equation: ΦPSII=(Fm′−Fs)/Fm′ (Genty, B., Briantais, J. M., Baker, N. R. (1989). The relationship between the quantum yield of photosynthetic electron transport and quenching of Chl fluorescence. Biochimica et Biophysica Acta, 990, 87-92). The excitation pressure of chlorophyll was calculated with the equation: 1−qL=1−(Fm′−Fs)/(Fm′−Fo)×Fo′/Fs (Kramer, D. M., Johnson, G., Kiirats, O., Edwards, G. E. (2004) New fluorescence parameters for the determination of Q(A) redox state and excitation energy fluxes. Photosynthesis Research, 79, 209-218).
PAM chlorophyll fluorometer with ED-P700 DW-E light absorb unit was used to measure the change of the light absorb at 810-830 nm, then the change of oxidation-reduction state of P700 was obtained. […]

[5] = system: wheat; test: Phenotype of transgenic wheat; assay type: in vivo
Procedure: Wheat transformation was performed with method described in Supartana P, Shimizu T, Nogawa M, Shioiri H, Nakajima T, Haramoto N, Nozue M, and Kojima M. Development of simple and efficient in Planta transformation method for wheat (Triticum aestivum L.) Using Agrobacterium tumefaciens, Journal of Bioscience and Bioengineering 102, 162-170.

[6] = system: Brassica; test: Soluble protein content of transgenic Brassica; assay type: in vivo, Brassica napus L.; conditions: three lines
Procedure: In this invention, three lines of mCherry transgenic Brassica were selected and the content of soluble protein was measured and compared with that in WT. The content of soluble protein in mCherry transgenic Brassica was increased.

[7] = system: Brassica; test: Growth, biomass and yield of transgenic Brassica; assay type: in vivo, Brassica napus L.; conditions: for fresh and dry weights vs WT and empty vector control: 4-week-old transgenic Brassica; for plant growth vs WT and empty vector control: 3 weeks
Source text: FIG. 14. (A) WT, empty vector control (pHB) and mCherry transgenic Brassica (L1-L3) were germinated and grown for one week in the phytotron under white light (PPFD:250 μmol m^−2s^−1). Then the plants were moved and grown under white light, green light (PFD: 60 μmol m^−2s^−1) or red+blue light (red light PFD; 60 μmol m^−2s^−1, blue light PFD; 10 μmol m^−2s^−1) for another 3 weeks and photos were taken, (B) Comparison of the fresh weights and dry weights of WT and mCherry transgenic Brassica grown under white light, green light or red+blue light for four weeks. Values in the figures are means±SD, for WT, n=10, for transgenic plant transformed with empty vector control pHB and mCherry, data were the averages of three independent lines and 10 plants for each line. **p≦0.01. (C) Net photosynthetic rate of WT and mCherry transgenic Brassica measured under different light qualities. Nine-week-old WT and mCherry transgenic Brassica grown in the phytotron (PPFD: 250 μmol m^−2s^−1) were transferred and treated with different qualities of light for 4 days and net photosynthetic rate was measured. (D) Net photosynthetic rate of WT and mCherry transgenic Brassica grow in the natural field measured under different PPFD as light source. Net photosynthetic rate was measured in situ between 10:00 am and 12:00 pm. […] FIG. 15. (A) Measurement of the fresh weight and dry weight per plant of 7-week-old WT and mCherry transgenic Brassica plants grown in the natural field conditions. Values in the figures are means±SD, n=10. *p≦0.05, **p≦0.01. (B) Comparison of the plant size, silique size, seed size, grain yield per plant and 1000-seed weight at the harvesting time. Values in the figures are means±SD, n=10. *p≦0.05, **p≦0.01. Wild type (WT), transgenic Brassica with empty vector (pHB) and mCherry transgenic Brassica (L1-L3) were germinated in the phytotron under white light (light intensity: 250 μmol m^−2s^−1) for 1 week. Then the plants were transferred and continued to grow under white light, green light (light intensity: 60 μmol m^−2s^−1), red+blue light (intensity of red light: 60 μmol m^−2s^−1; intensity of blue light: 10 μmol m^−2s^−1). The […] were taken three weeks after transfer.

[8] = transgenic Brassica, young seedling stage

mCherry: red fluorescent protein, amino acid sequence SEQ ID NO: 2
net photosynthesis rate vs WT ([1]; phytotron-grown transgenic Brassica, white light and green light): significantly increased
net photosynthesis rate vs WT and empty vector ([1]; transgenic Brassica in natural field conditions, different light intensities): significantly increased
net photosynthetic rate, increase compared with wild type ([1]; 400 μmol m^−2s^−1): 31%
net photosynthetic rate, increase compared with wild type ([1]; 800 μmol m^−2s^−1): 28%
net photosynthetic rate, increase compared with wild type ([1]; 1200 μmol m^−2s^−1): 16%
accessory photosynthetic pigments (carotenoids) content [2]: increased
chlorophyll content and ratio of Chl a/b [2]: did not change
light energy absorbed by leaves [3]: significantly increased
initial rate of P700^+ reduction (PSI cyclic electron transport) vs WT ([4]; transgenic Brassica leaves): much higher
photochemical efficiency of PSII (ΦPSII) ([4]; transgenic Brassica transferred from red+blue light to white light): increased
seed size and grain yield per plant vs WT [5]: increase
seed size and panicle size vs WT [5]: significantly increased
content of soluble protein vs WT [6]: increased
fresh and dry weights vs WT and empty vector control ([7]; red+blue light): no significant difference
fresh and dry weights vs WT and empty vector control ([7]; white or green light): significantly increased
1000-seed weight, increase vs WT ([7]; transgenic Brassica): 25%
grain yield per plant, increase vs WT ([7]; transgenic Brassica): 30 to 100%
1000-seed weight vs WT (in words) ([7]; transgenic Brassica at harvest): increased
grain yield per plant vs WT (in words) ([7]; transgenic Brassica at harvest): increased
seed size vs WT ([7]; transgenic Brassica at harvest): significantly increased
growth and biomass accumulation ([7]; transgenic Brassica, natural field conditions): stimulated the growth and biomass accumulation
plant growth vs WT and empty vector control ([7]; transgenic Brassica, red+blue light): No significant difference
plant growth vs WT and empty vector control ([7]; transgenic Brassica, white light and green light): grew better than WT and empty vector control plants
dry weight, increase vs WT [7, 8]: 78%
fresh weight, increase vs WT [7, 8]: 66.7%
